Converted amounts (≈) assume the structure as drawn. Square brackets hold non-standard residues; d marks the D form. Peptide text beside a SMILES is read from it. Tle = CC(C)(C)[C@H](N)C(=O)O; Orn = NCCC[C@H](N)C(=O)O
Legend:
[1] = Nephrotoxicity against HEK293 cells assessed as cell viability incubated for 24 hrs by MTT assay; format: toxicity, cell-based; details: human
[2] = Retention time of the compound by RP-HPLC analysis; format: physicochemical
[3] = Therapeutic index, ratio of HC50 for human RBC to MIC for antibacterial activity against methicillin-sensitive Staphylococcus aureus ATCC 29213 clinical isolate; format: toxicity, cell-based; details: pooled result: one value given for 2 cell lines, strains, targets or settings, read-out: TI
Staphylococcus aureus [4] = test: Antibacterial activity against methicillin-sensitive Staphylococcus aureus ATCC 29213 clinical isolate assessed as bacterial growth inhibition at 256 to 0.125 ug/ml in CAMH broth medium incubated for 16 to 20 hrs by broth microdilution method; format: functional; details: dose 256-0.125 µg/ml, time 16-20 hrs
[5] = Hemolytic activity in human RBC assessed as hemolysis incubated for 1 hr by absorbance based assay; format: toxicity, cell-based, Erythrocyte; details: human red blood cells
Staphylococcus aureus [6] = test: Antibacterial activity against methicillin-resistant Staphylococcus aureus ATCC USA 300 clinical isolate assessed as bacterial growth inhibition at 256 to 0.125 ug/ml in CAMH broth medium incubated for 16 to 20 hrs by broth microdilution method; format: functional; details: dose 256-0.125 µg/ml, time 16-20 hrs

Structure (SMILES)	IC50 at 24 h [1]	Retention_time [2]	selectivity ratio [3]	MIC (Staphylococcus aureus [4])	HC50 at 1 h [5]	MIC (Staphylococcus aureus [6])
CC(C)C[C@@H]1NC(=O)[C@H](CCCN)NC(=O)[C@H](C(C)(C)C)NC(=O)[C@@H]2CCCN2C(=O)[C@@H](Cc2ccccc2)NC(=O)[C@H](CC(C)C)NC(=O)[C@H](CCCN)NC(=O)[C@H](C(C)C)NC(=O)[C@@H]2CCCN2C(=O)[C@@H](CCCNC(=N)N)NC1=O	19.5 µg/mL (≈ 16.8 µM)	16.8 min	10	6 µg/mL (≈ 5.15 µM)	60.2 µg/mL	6 µg/mL (≈ 5.15 µM)
CC(C)C[C@@H]1NC(=O)[C@H](CCCN)NC(=O)[C@H](C(C)(C)C)NC(=O)[C@@H]2CCCN2C(=O)[C@@H](CCCNC(=N)N)NC(=O)[C@H](CC(C)C)NC(=O)[C@H](CCCN)NC(=O)[C@H](C(C)C)NC(=O)[C@@H]2CCCN2C(=O)[C@@H](Cc2ccccc2)NC1=O	38.1 µg/mL (≈ 32.7 µM)	16.79 min	7.21	7 µg/mL (≈ 6.01 µM)	50.5 µg/mL	7 µg/mL (≈ 6.01 µM)
CC(C)C[C@@H]1NC(=O)[C@H](CCCN)NC(=O)[C@H](C(C)C)NC(=O)[C@H](Cc2c[nH]c3ccccc23)NC(=O)[C@@H](Cc2c[nH]c3ccccc23)NC(=O)[C@H](CC(C)C)NC(=O)[C@H](CCCN)NC(=O)[C@H](C(C)C)NC(=O)[C@H](Cc2c[nH]c3ccccc23)NC(=O)[C@@H](Cc2c[nH]c3ccccc23)NC1=O	19.7 µg/mL (≈ 14.1 µM)	18.69 min	1.74	32 µg/mL (≈ 22.9 µM)	55.6 µg/mL	32 µg/mL (≈ 22.9 µM)
CC(C)C[C@@H]1NC(=O)[C@H](CCCN)NC(=O)[C@H](C(C)C)NC(=O)[C@@H]2CCCN2C(=O)[C@@H](Cc2ccccc2)NC(=O)[C@H](CC(C)C)NC(=O)[C@H](CCCN)NC(=O)[C@H](C(C)C)NC(=O)[C@H](Cc2c[nH]c3ccccc23)NC(=O)[C@@H](Cc2ccccc2)NC1=O (HELM PEPTIDE1{L.[dF].P.V.[Orn].L.[dF].W.V.[Orn]}$PEPTIDE1,PEPTIDE1,1:R1-10:R2$$$V2.0)	5.07 µg/mL (≈ 4.12 µM)	18.78 min	2.26	4 µg/mL (≈ 3.25 µM)	9.04 µg/mL	4 µg/mL (≈ 3.25 µM)
CC(C)C[C@@H]1NC(=O)[C@H](CCCN)NC(=O)[C@H](C(C)C)NC(=O)[C@@H]2CCCN2C(=O)[C@@H](Cc2ccccc2)NC(=O)[C@H](CC(C)C)NC(=O)[C@H](CCCN)NC(=O)[C@H](C(C)C)NC(=O)[C@H](Cc2c[nH]c3ccccc23)NC(=O)[C@@H](CCCNC(=N)N)NC1=O (HELM PEPTIDE1{L.[dF].P.V.[Orn].L.[dR].W.V.[Orn]}$PEPTIDE1,PEPTIDE1,1:R1-10:R2$$$V2.0)	13.6 µg/mL (≈ 11 µM)	16.56 min	6.56	5 µg/mL (≈ 4.03 µM)	32.8 µg/mL	5 µg/mL (≈ 4.03 µM)
CC(C)C[C@@H]1NC(=O)[C@H](CCCN)NC(=O)[C@H](C(C)C)NC(=O)[C@@H]2CCCN2C(=O)[C@@H](Cc2ccccc2)NC(=O)[C@H](CC(C)C)NC(=O)[C@H](CCCN)NC(=O)[C@H](C(C)C)NC(=O)[C@H](Cc2c[nH]c3ccccc23)NC(=O)[C@@H](Cc2c[nH]c3ccccc23)NC1=O (HELM PEPTIDE1{L.[dF].P.V.[Orn].L.[dW].W.V.[Orn]}$PEPTIDE1,PEPTIDE1,1:R1-10:R2$$$V2.0)	4.64 µg/mL (≈ 3.65 µM)	18.78 min	1.46	4 µg/mL (≈ 3.15 µM)	5.85 µg/mL	4 µg/mL (≈ 3.15 µM)
CC(C)C[C@@H]1NC(=O)[C@H](CCCN)NC(=O)[C@H](C(C)(C)C)NC(=O)[C@@H]2CCCN2C(=O)[C@@H](Cc2ccccc2)NC(=O)[C@H](CC(C)C)NC(=O)[C@H](CCCN)NC(=O)[C@H](C(C)C)NC(=O)[C@@H]2CCCN2C(=O)[C@@H](Cc2ccccc2)NC1=O (HELM PEPTIDE1{L.[dF].P.[CC(C)(C)[C@H](N[*:1])C(=O)[*:2]].[Orn].L.[dF].P.V.[Orn]}$PEPTIDE1,PEPTIDE1,1:R1-10:R2$$$V2.0)	5.46 µg/mL (≈ 4.73 µM)	19.38 min	1.87	4 µg/mL (≈ 3.46 µM)	7.49 µg/mL	4 µg/mL (≈ 3.46 µM)
CC(C)C[C@@H]1NC(=O)[C@H](CCCN)NC(=O)[C@H](C(C)(C)C)NC(=O)[C@@H]2CCCN2C(=O)[C@@H](Cc2ccccc2)NC(=O)[C@H](CC(C)C)NC(=O)[C@H](CCCN)NC(=O)[C@H](C(C)(C)C)NC(=O)[C@@H]2CCCN2C(=O)[C@@H](Cc2ccccc2)NC1=O (HELM PEPTIDE1{L.[dF].P.[CC(C)(C)[C@H](N[*:1])C(=O)[*:2]].[Orn].L.[dF].P.[CC(C)(C)[C@H](N[*:1])C(=O)[*:2]].[Orn]}$PEPTIDE1,PEPTIDE1,1:R1-10:R2$$$V2.0)	4.62 µg/mL (≈ 3.95 µM)	19.99 min	1.57	4 µg/mL (≈ 3.42 µM)	6.26 µg/mL	4 µg/mL (≈ 3.42 µM)
CC(C)C[C@@H]1NC(=O)[C@H](CCCN)NC(=O)[C@H](C(C)(C)C)NC(=O)[C@@H]2CCCN2C(=O)[C@@H](Cc2ccccc2)NC(=O)[C@H](CC(C)C)NC(=O)[C@H](CCCN)NC(=O)[C@H](C(C)(C)C)NC(=O)[C@@H]2CCCN2C(=O)[C@@H](CCCNC(=N)N)NC1=O (HELM PEPTIDE1{L.[dF].P.[CC(C)(C)[C@H](N[*:1])C(=O)[*:2]].[Orn].L.[dR].P.[CC(C)(C)[C@H](N[*:1])C(=O)[*:2]].[Orn]}$PEPTIDE1,PEPTIDE1,1:R1-10:R2$$$V2.0)	9.75 µg/mL (≈ 8.27 µM)	17.15 min	5.9	3 µg/mL (≈ 2.55 µM)	17.7 µg/mL	3 µg/mL (≈ 2.55 µM)
CC(C)C[C@@H]1NC(=O)[C@H](CCCN)NC(=O)[C@H](C(C)C)NC(=O)[C@H](Cc2c[nH]c3ccccc23)NC(=O)[C@@H](Cc2ccccc2)NC(=O)[C@H](CC(C)C)NC(=O)[C@H](CCCN)NC(=O)[C@H](C(C)C)NC(=O)[C@H](Cc2c[nH]c3ccccc23)NC(=O)[C@@H](Cc2ccccc2)NC1=O (HELM PEPTIDE1{L.[dF].W.V.[Orn].L.[dF].W.V.[Orn]}$PEPTIDE1,PEPTIDE1,1:R1-10:R2$$$V2.0)	5.03 µg/mL (≈ 3.81 µM)	18.58 min	1.75	7 µg/mL (≈ 5.3 µM)	12.2 µg/mL	7 µg/mL (≈ 5.3 µM)
CC(C)C[C@@H]1NC(=O)[C@H](CCCN)NC(=O)[C@H](C(C)C)NC(=O)[C@@H]2CCCN2C(=O)[C@@H](CCCNC(=N)N)NC(=O)[C@H](CC(C)C)NC(=O)[C@H](CCCN)NC(=O)[C@H](C(C)C)NC(=O)[C@H](Cc2c[nH]c3ccccc23)NC(=O)[C@@H](Cc2ccccc2)NC1=O (HELM PEPTIDE1{L.[dF].W.V.[Orn].L.[dR].P.V.[Orn]}$PEPTIDE1,PEPTIDE1,1:R1-10:R2$$$V2.0)	11.3 µg/mL (≈ 9.13 µM)	16.5 min	6.38	5 µg/mL (≈ 4.03 µM)	31.9 µg/mL	5 µg/mL (≈ 4.03 µM)
CC(C)C[C@@H]1NC(=O)[C@H](CCCN)NC(=O)[C@H](C(C)C)NC(=O)[C@H](Cc2c[nH]c3ccccc23)NC(=O)[C@@H](Cc2ccccc2)NC(=O)[C@H](CC(C)C)NC(=O)[C@H](CCCN)NC(=O)[C@H](C(C)C)NC(=O)[C@H](Cc2c[nH]c3ccccc23)NC(=O)[C@@H](CCCNC(=N)N)NC1=O (HELM PEPTIDE1{L.[dF].W.V.[Orn].L.[dR].W.V.[Orn]}$PEPTIDE1,PEPTIDE1,1:R1-10:R2$$$V2.0)	5.36 µg/mL (≈ 4.03 µM)	16.6 min	3.93	5 µg/mL (≈ 3.76 µM)	19.6 µg/mL	5 µg/mL (≈ 3.76 µM)
CC(C)C[C@@H]1NC(=O)[C@H](CCCN)NC(=O)[C@H](C(C)C)NC(=O)[C@H](Cc2c[nH]c3ccccc23)NC(=O)[C@@H](Cc2c[nH]c3ccccc23)NC(=O)[C@H](CC(C)C)NC(=O)[C@H](CCCN)NC(=O)[C@H](C(C)C)NC(=O)[C@H](Cc2c[nH]c3ccccc23)NC(=O)[C@@H](Cc2ccccc2)NC1=O (HELM PEPTIDE1{L.[dF].W.V.[Orn].L.[dW].W.V.[Orn]}$PEPTIDE1,PEPTIDE1,1:R1-10:R2$$$V2.0)	4.07 µg/mL (≈ 3 µM)	18.68 min	0.58	64 µg/mL (≈ 47.1 µM)	37.2 µg/mL	64 µg/mL (≈ 47.1 µM)
CC(C)(C)[C@@H]1NC(=O)[C@H](CCCN)NC(=O)[C@H](C(C)(C)C)NC(=O)[C@@H]2CCCN2C(=O)[C@@H](Cc2ccccc2)NC(=O)[C@H](C(C)(C)C)NC(=O)[C@H](CCCN)NC(=O)[C@H](C(C)(C)C)NC(=O)[C@@H]2CCCN2C(=O)[C@@H](Cc2ccccc2)NC1=O (cyclo([Orn][Tle][dF]P[Tle][Orn][Tle][dF]P[Tle]))	5.31 µg/mL (≈ 4.54 µM)	19.9 min	2.95	2 µg/mL (≈ 1.71 µM)	5.9 µg/mL	2 µg/mL (≈ 1.71 µM)
CC(C)(C)[C@@H]1NC(=O)[C@H](CCCN)NC(=O)[C@H](C(C)(C)C)NC(=O)[C@@H]2CCCN2C(=O)[C@@H](Cc2ccccc2)NC(=O)[C@H](C(C)(C)C)NC(=O)[C@H](CCCN)NC(=O)[C@H](C(C)(C)C)NC(=O)[C@@H]2CCCN2C(=O)[C@@H](CCCNC(=N)N)NC1=O (cyclo([Orn][Tle][dF]P[Tle][Orn][Tle][dR]P[Tle]))	12.6 µg/mL (≈ 10.7 µM)	16.92 min	14	6 µg/mL (≈ 5.09 µM)	84.1 µg/mL	6 µg/mL (≈ 5.09 µM)
CC(C)C[C@@H]1NC(=O)[C@H](CCCN)NC(=O)[C@H](C(C)C)NC(=O)[C@@H]2CCCN2C(=O)[C@@H](Cc2ccccc2)NC(=O)[C@H](CC(C)C)NC(=O)[C@H](CCCN)NC(=O)[C@H](C(C)C)NC(=O)[C@@H]2CCCN2C(=O)[C@@H](Cc2ccccc2)NC1=O [GRAMICIDIN S] (HELM PEPTIDE1{L.[dF].P.V.[Orn].L.[dF].P.V.[Orn]}$PEPTIDE1,PEPTIDE1,1:R1-10:R2$$$V2.0)	6.45 µg/mL (≈ 5.65 µM)	18.57 min	3.09	4 µg/mL (≈ 3.5 µM)	12.3 µg/mL	4 µg/mL (≈ 3.5 µM)

Source: ChEMBL document CHEMBL6074682, “Expanding the therapeutic window of gramicidin S towards a safe and effective systemic treatment of methicillin-resistant S. aureus infections” (Eur J Med Chem, 2025)
